Measurements as given in PubChem BioAssay (NCI).
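Exposure lasted 48 hours, with cells grown in 96-well plates and compounds tested at five concentrations. GI50 is the concentration that inhibits growth by half. TGI: total growth inhibition.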

Legend:
Assay in all cases: inhibition of tumour cell growth, NCI panel, 48 h
PC-3 prostate = test system: PC-3 prostate
HCT-15 colon = test system: HCT-15 colon
U251 CNS = test system: U251 CNS
SR leukemia = test system: SR leukemia
COLO 205 colon = test system: COLO 205 colon
UACC-62 melanoma = test system: UACC-62 melanoma
MDA-MB-435 = test system: MDA-MB-435
BT-549 breast = test system: BT-549 breast
NCI/ADR-RES ovarian = test system: NCI/ADR-RES ovarian
MALME-3M melanoma = test system: MALME-3M melanoma
SNB-19 CNS = test system: SNB-19 CNS
HL-60(TB) leukemia = test system: HL-60(TB) leukemia
M14 melanoma = test system: M14 melanoma
A498 renal = test system: A498 renal
OVCAR-5 ovarian = test system: OVCAR-5 ovarian
SK-MEL-5 melanoma = test system: SK-MEL-5 melanoma
SK-MEL-28 melanoma = test system: SK-MEL-28 melanoma
HT29 colon = test system: HT29 colon
A549 NSCLC = test system: A549 NSCLC
HS 578T breast = test system: HS 578T breast
786-0 renal = test system: 786-0 renal
HOP-92 NSCLC = test system: HOP-92 NSCLC
MDA-MB-468 breast = test system: MDA-MB-468 breast
EKVX NSCLC = test system: EKVX NSCLC
LOX IMVI melanoma = test system: LOX IMVI melanoma
MCF7 breast = test system: MCF7 breast
SNB-75 CNS = test system: SNB-75 CNS
TK-10 renal = test system: TK-10 renal
MOLT-4 leukemia = test system: MOLT-4 leukemia
UO-31 renal = test system: UO-31 renal
NCI-H460 lung = test system: NCI-H460 lung
DU-145 prostate = test system: DU-145 prostate
OVCAR-3 ovarian = test system: OVCAR-3 ovarian
RXF 393 renal = test system: RXF 393 renal
NCI-H522 lung = test system: NCI-H522 lung
HCT-116 colon = test system: HCT-116 colon
SF-268 CNS = test system: SF-268 CNS
HCC-2998 colon = test system: HCC-2998 colon
SN12C renal = test system: SN12C renal
SF-295 CNS = test system: SF-295 CNS
OVCAR-8 ovarian = test system: OVCAR-8 ovarian
SK-MEL-2 melanoma = test system: SK-MEL-2 melanoma
ACHN renal = test system: ACHN renal
SF-539 CNS = test system: SF-539 CNS
SW-620 colon = test system: SW-620 colon
T-47D breast = test system: T-47D breast
IGROV1 ovarian = test system: IGROV1 ovarian
SK-OV-3 ovarian = test system: SK-OV-3 ovarian
RPMI-8226 leukemia = test system: RPMI-8226 leukemia
MDA-MB-231 breast = test system: MDA-MB-231 breast
UACC-257 melanoma = test system: UACC-257 melanoma
NCI-H23 lung = test system: NCI-H23 lung
NCI-H226 lung = test system: NCI-H226 lung
KM12 colon = test system: KM12 colon
CAKI-1 renal = test system: CAKI-1 renal

O/N=C(\CSc1nnc(-c2c[nH]c3ccccc23)n1-c1ccccc1)c1ccc(Cl)cc1
GI50 (PC-3 prostate): 2.31 µM | TGI (PC-3 prostate): 7.29 µM | GI50 (HCT-15 colon): 3.2 µM | TGI (HCT-15 colon): 13.6 µM | GI50 (U251 CNS): 4.73 µM | TGI (U251 CNS): 81.2 µM | GI50 (SR leukemia): 4.74 µM | TGI (SR leukemia): > 100 µM | GI50 (COLO 205 colon): 4.47 µM | TGI (COLO 205 colon): 25.9 µM | GI50 (UACC-62 melanoma): 2.62 µM | TGI (UACC-62 melanoma): 10.1 µM | GI50 (MDA-MB-435): 1.74 µM | TGI (MDA-MB-435): 3.41 µM | GI50 (BT-549 breast): 3.71 µM | TGI (BT-549 breast): 11.1 µM | GI50 (NCI/ADR-RES ovarian): 2.95 µM | TGI (NCI/ADR-RES ovarian): 9.5 µM | GI50 (MALME-3M melanoma): 4.99 µM | TGI (MALME-3M melanoma): 27.5 µM | GI50 (SNB-19 CNS): 6.89 µM | TGI (SNB-19 CNS): 45.2 µM | GI50 (HL-60(TB) leukemia): 2.17 µM | TGI (HL-60(TB) leukemia): 6.34 µM | GI50 (M14 melanoma): 3.16 µM | TGI (M14 melanoma): 14.1 µM | GI50 (A498 renal): 15.4 µM | TGI (A498 renal): 65.8 µM | GI50 (OVCAR-5 ovarian): 3.37 µM | TGI (OVCAR-5 ovarian): 11.4 µM | GI50 (SK-MEL-5 melanoma): 3.87 µM | TGI (SK-MEL-5 melanoma): 19.5 µM | GI50 (SK-MEL-28 melanoma): 4.41 µM | TGI (SK-MEL-28 melanoma): > 100 µM | GI50 (HT29 colon): 3.04 µM | TGI (HT29 colon): 11.8 µM | GI50 (A549 NSCLC): 3.35 µM | TGI (A549 NSCLC): 16.8 µM | GI50 (HS 578T breast): 3.09 µM | TGI (HS 578T breast): 16.6 µM | GI50 (786-0 renal): 7.29 µM | TGI (786-0 renal): > 100 µM | GI50 (HOP-92 NSCLC): 3.84 µM | TGI (HOP-92 NSCLC): 37.6 µM | GI50 (MDA-MB-468 breast): 1.72 µM | TGI (MDA-MB-468 breast): 3.47 µM | GI50 (EKVX NSCLC): 3.21 µM | TGI (EKVX NSCLC): 19.2 µM | GI50 (LOX IMVI melanoma): 1.72 µM | TGI (LOX IMVI melanoma): 3.12 µM | GI50 (MCF7 breast): 3.63 µM | TGI (MCF7 breast): 21.6 µM | GI50 (SNB-75 CNS): 1.68 µM | TGI (SNB-75 CNS): 5.8 µM | GI50 (TK-10 renal): 3.7 µM | TGI (TK-10 renal): 17.7 µM | GI50 (MOLT-4 leukemia): 2.16 µM | TGI (MOLT-4 leukemia): 5.69 µM | GI50 (UO-31 renal): 2.88 µM | TGI (UO-31 renal): 15.7 µM | GI50 (NCI-H460 lung): 3.34 µM | TGI (NCI-H460 lung): 15.7 µM | GI50 (DU-145 prostate): 2.59 µM | TGI (DU-145 prostate): 6.32 µM | GI50 (OVCAR-3 ovarian): 4.58 µM | TGI (OVCAR-3 ovarian): 32.4 µM | GI50 (RXF 393 renal): 2.22 µM | TGI (RXF 393 renal): 6.29 µM | GI50 (NCI-H522 lung): 3.11 µM | TGI (NCI-H522 lung): 12.5 µM | GI50 (HCT-116 colon): 2.92 µM | TGI (HCT-116 colon): 13.7 µM | GI50 (SF-268 CNS): 2.11 µM | TGI (SF-268 CNS): 5.08 µM | GI50 (HCC-2998 colon): 4.74 µM | TGI (HCC-2998 colon): 22.5 µM | GI50 (SN12C renal): 3.79 µM | TGI (SN12C renal): 16.3 µM | GI50 (SF-295 CNS): 3.11 µM | TGI (SF-295 CNS): 13.4 µM | GI50 (OVCAR-8 ovarian): 3.72 µM | TGI (OVCAR-8 ovarian): 15.8 µM | GI50 (SK-MEL-2 melanoma): 3.64 µM | TGI (SK-MEL-2 melanoma): 17.1 µM | GI50 (ACHN renal): 3.69 µM | TGI (ACHN renal): 14.5 µM | GI50 (SF-539 CNS): 10.2 µM | TGI (SF-539 CNS): 29.5 µM | GI50 (SW-620 colon): 3.08 µM | TGI (SW-620 colon): 16.1 µM | GI50 (T-47D breast): 3.6 µM | TGI (T-47D breast): 31.4 µM | GI50 (IGROV1 ovarian): 5.35 µM | TGI (IGROV1 ovarian): 19.8 µM | GI50 (SK-OV-3 ovarian): 3.38 µM | TGI (SK-OV-3 ovarian): 12.4 µM | GI50 (RPMI-8226 leukemia): 2.38 µM | TGI (RPMI-8226 leukemia): 7.29 µM | GI50 (MDA-MB-231 breast): 1.87 µM | TGI (MDA-MB-231 breast): 3.66 µM | GI50 (UACC-257 melanoma): 4.67 µM | TGI (UACC-257 melanoma): 87.8 µM | GI50 (NCI-H23 lung): 6.51 µM | TGI (NCI-H23 lung): > 100 µM | GI50 (NCI-H226 lung): 3.98 µM | TGI (NCI-H226 lung): 17.6 µM | GI50 (KM12 colon): 4.72 µM | TGI (KM12 colon): > 100 µM | GI50 (CAKI-1 renal): 2.93 µM | TGI (CAKI-1 renal): 12.4 µM
